In PubChem BioAssay (NCI):
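A five-concentration, 48-hour dose response in 96-well plates underlies each endpoint, interpolated linearly between surrounding concentrations. The concentration for full growth arrest is given as TGI.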

Tests used:
Assay in all cases: growth of human tumour cells (NCI), 48 h
[1] = test system: SF-295 CNS
[2] = test system: SF-268 CNS
[3] = test system: NCI-H23 lung
[4] = test system: RPMI-8226 leukemia
[5] = test system: OVCAR-4 ovarian
[6] = test system: MALME-3M melanoma
[7] = test system: IGROV1 ovarian
[8] = test system: PC-3 prostate
[9] = test system: SK-MEL-28 melanoma
[10] = test system: NCI-H522 lung
[11] = test system: SN12C renal
[12] = test system: 786-0 renal
[13] = test system: RXF 393 renal
[14] = test system: HS 578T breast
[15] = test system: MCF7 breast
[16] = test system: U251 CNS
[17] = test system: SNB-19 CNS
[18] = test system: HL-60(TB) leukemia
[19] = test system: A549 NSCLC
[20] = test system: OVCAR-8 ovarian
[21] = test system: MOLT-4 leukemia
[22] = test system: ACHN renal
[23] = test system: TK-10 renal
[24] = test system: BT-549 breast
[25] = test system: CCRF-CEM leukemia
[26] = test system: HT29 colon
[27] = test system: M14 melanoma
[28] = test system: HCT-15 colon
[29] = test system: NCI/ADR-RES ovarian
[30] = test system: SNB-75 CNS
[31] = test system: OVCAR-3 ovarian
[32] = test system: SR leukemia
[33] = test system: SW-620 colon
[34] = test system: SK-MEL-2 melanoma
[35] = test system: OVCAR-5 ovarian
[36] = test system: UO-31 renal
[37] = test system: EKVX NSCLC
[38] = test system: LOX IMVI melanoma
[39] = test system: HCC-2998 colon
[40] = test system: SF-539 CNS
[41] = test system: KM12 colon
[42] = test system: HOP-62 NSCLC
[43] = test system: NCI-H226 lung
[44] = test system: UACC-257 melanoma
[45] = test system: SK-MEL-5 melanoma
[46] = test system: UACC-62 melanoma
[47] = test system: MDA-MB-435
[48] = test system: SK-OV-3 ovarian
[49] = test system: NCI-H460 lung
[50] = test system: K-562 leukemia

Measured: TGI

OCCCC(O)(c1ccccc1)c1ccccc1
> 100 µM: all assays above
